Reference: patent US20060069132A1, “Azolecarboxamide herbicides” (priority 2004, published 2006)
Where two headings read alike, the source gives them in different places.

Key:
blackgrass = assay: Test B postemergence herbicide test; assay type: in vivo, Alopecurus myosuroides; conditions: Alopecurus myosuroides, post-emergence, 336 h, postemergence, visual rating, scale 0 (no effect) to 100 (complete control), read-out: Blackgrass plant response rating
Procedure, shortened: (§1)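 Formulated test chemicals went onto postemergence plants measuring 2 to 18 cm, at one to four leaves. For the paddy assay, species had reached two leaves. Scoring took place 13–15 days later by eye, relative to untreated plants, using 0 for no effect up to 100 for full control.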

large crabgrass = assay: Test B pre-/postemergence herbicide test; assay type: in vivo, Digitaria sanguinalis; conditions: Digitaria sanguinalis; for pest or weed control at 125 g/ha: 125 g ai/ha; for pest or weed control at 500 g/ha: 500 g ai/ha
Procedure, shortened: (§2)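 Seeds were planted and treated preemergence with compounds formulated in a non-phytotoxic solvent mixture containing surfactant, while plants at the 1- to 4-leaf stage (2 to 18 cm) received postemergence sprays. Flooded paddy plants were grown to the 2-leaf stage. After 13 to 15 days in a greenhouse, injury was visually rated 0–100 against untreated controls.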

cocklebur = assay: Test B pre-/postemergence herbicide test; assay type: in vivo, Xanthium strumarium; conditions: Xanthium strumarium; for pest or weed control at 125 g/ha: 125 g ai/ha; for pest or weed control at 500 g/ha: 500 g ai/ha
Procedure, shortened: (§3)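 Plants compared with untreated controls 13–15 days post-treatment and given a visual 0–100 injury score. Applications: preemergence to seeds; postemergence at 1- to 4-leaf (2–18 cm); paddy species flooded, 2-leaf stage. Vehicle non-phytotoxic, surfactant included.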

giant foxtail = assay: Test B pre-/postemergence herbicide test; assay type: in vivo, Setaria faberi; conditions: Setaria faberi, 336 h; for pest or weed control at 125 g/ha: 125 g ai/ha; for pest or weed control at 500 g/ha: 500 g ai/ha
Procedure, shortened: as §2

Surinam grass = assay: Test B pre-/postemergence herbicide test; assay type: in vivo, Urochloa decumbens; conditions: Urochloa decumbens; for pest or weed control at 125 g/ha: 125 g ai/ha; for pest or weed control at 500 g/ha: 500 g ai/ha
Procedure, shortened: as §2

barnyardgrass [1] = assay: Test B flooded paddy test; assay type: in vivo, Echinochloa crus-galli; conditions: Echinochloa crus-galli, 336 h, 1000 g ai/ha, scale 0 to 100 (0 no effect, 100 complete control), read-out: Barnyardgrass plant response rating
Procedure, shortened: as §1

ducksalad = assay: Test B flooded paddy test; assay type: in vivo, Heteranthera limosa; conditions: Heteranthera limosa, 336 h, 1000 g ai/ha, scale 0 to 100 (0 no effect, 100 complete control), read-out: Ducksalad plant response rating
Procedure, shortened: as §1

wheat = assay: Test B postemergence herbicide test; assay type: in vivo, Triticum aestivum; conditions: Triticum aestivum, post-emergence, 336 h, postemergence, read-out: Wheat plant response rating
Procedure, shortened: (§4)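 Visual ratings, 0 (no effect) to 100 (complete control), made versus controls after 13–15 d greenhouse. Paddy plants treated at 2-leaf stage; postemergence plants at 1- to 4-leaf stage, 2–18 cm tall.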

[2] = system: small flower umbrella sedge; assay: Test B flooded paddy test; assay type: in vivo, Cyperus difformis; conditions: Cyperus difformis, 336 h, 1000 g ai/ha, scale 0 to 100 (0 no effect, 100 complete control), read-out: Sedge, Umbrella plant response rating
Procedure, shortened: as §1

rice = assay: Test B flooded paddy test; assay type: in vivo, Oryza sativa; conditions: Oryza sativa, 336 h, 1000 g ai/ha, scale 0 to 100 (0 no effect, 100 complete control), read-out: Rice plant response rating
Procedure, shortened: as §4

pigweed = assay: Test B pre-/postemergence herbicide test; assay type: in vivo, Amaranthus retroflexus; conditions: Amaranthus retroflexus, 336 h; for pest or weed control at 125 g/ha: 125 g ai/ha; for pest or weed control at 500 g/ha: 500 g ai/ha
Procedure, shortened: as §2

morningglory = assay: Test B pre-/postemergence herbicide test; assay type: in vivo, Ipomoea coccinea; conditions: Ipomoea, 336 h; for pest or weed control at 125 g/ha: 125 g ai/ha; for pest or weed control at 500 g/ha: 500 g ai/ha
Procedure, shortened: as §3

lambsquarters = assay: Test B pre-/postemergence herbicide test; assay type: in vivo, Chenopodium album; conditions: Chenopodium album, 336 h; for pest or weed control at 125 g/ha: 125 g ai/ha; for pest or weed control at 500 g/ha: 500 g ai/ha
Procedure, shortened: as §2

velvetleaf = assay: Test B pre-/postemergence herbicide test; assay type: in vivo, Abutilon theophrasti; conditions: Abutilon theophrasti, 336 h; for pest or weed control at 125 g/ha: 125 g ai/ha; for pest or weed control at 500 g/ha: 500 g ai/ha
Procedure, shortened: as §2

barnyardgrass [3] = assay: Test B pre-/postemergence herbicide test; assay type: in vivo, Echinochloa crus-galli; conditions: Echinochloa crus-galli; for pest or weed control at 125 g/ha: 125 g ai/ha; for pest or weed control at 500 g/ha: 500 g ai/ha
Procedure, shortened: as §3

[4] = post-emergence, postemergence, visual rating, scale 0 (no effect) to 100 (complete control), read-out: Cocklebur plant response rating
[5] = post-emergence, postemergence, visual rating, scale 0 (no effect) to 100 (complete control), read-out: Barnyardgrass plant response rating

With `CCNC(=O)c1cc(NC(=O)c2cn(C(C)(C)C)nc2CC)ccc1F` [Compound 241, 1-(1,1-dimethylethyl)-3-ethyl-N-[3-[(ethylamino)carbonyl]-4-fluorophenyl]-1H-pyrazole-4-carboxamide] the pest or weed control at 125 g/ha (blackgrass; 125 g ai/ha) was 0%, the pest or weed control at 500 g/ha (blackgrass; 500 g ai/ha) was 10% and the pest or weed control at 125 g/ha (large crabgrass; post-emergence, postemergence, visual rating, scale 0 (no effect) to 100 (complete control), read-out: Crabgrass, Large plant response rating) was 0%. The pest or weed control at 500 g/ha (large crabgrass; post-emergence, postemergence, scale 0 to 100, 0 is no effect, 100 is complete control, read-out: Crabgrass, Large plant response rating) was 10%, the pest or weed control at 125 g/ha (large crabgrass; pre-emergence, 0 = no effect, 100 = complete control, read-out: Crabgrass, Large plant response rating (0 to 100 scale)) was 90% and the pest or weed control at 500 g/ha (large crabgrass; pre-emergence, visual rating, 0 = no effect, 100 = complete control, read-out: Plant response rating, Crabgrass, Large) was 100%. The pest or weed control at 125 g/ha (cocklebur; [4]) was 20%, the pest or weed control at 500 g/ha (cocklebur; [4]) was 30% and the pest or weed control at 125 g/ha (cocklebur; pre-emergence, 0 = no effect, 100 = complete control, read-out: Cocklebur plant response rating (0 to 100 scale)) was 0%. For the same compound, the pest or weed control at 500 g/ha (cocklebur; pre-emergence, visual rating, 0 = no effect, 100 = complete control, read-out: Plant response rating, Cocklebur) was 0%, the pest or weed control at 125 g/ha (giant foxtail; post-emergence, postemergence, visual rating, scale 0 (no effect) to 100 (complete control), read-out: Foxtail, Giant plant response rating) was 0% and the pest or weed control at 500 g/ha (giant foxtail; post-emergence, postemergence, scale 0 to 100, 0 is no effect, 100 is complete control, read-out: Foxtail, Giant plant response rating) was 0%. It also gave a pest or weed control at 125 g/ha (giant foxtail; pre-emergence, 0 = no effect, 100 = complete control, read-out: Foxtail, Giant plant response rating (0 to 100 scale)) of 10%, a pest or weed control at 500 g/ha (giant foxtail; pre-emergence, visual rating, 0 = no effect, 100 = complete control, read-out: Plant response rating, Foxtail, Giant) of 90% and a pest or weed control at 125 g/ha (Surinam grass; post-emergence, postemergence, visual rating, scale 0 (no effect) to 100 (complete control), read-out: Surinam Grass plant response rating) of 10%. The pest or weed control at 500 g/ha (Surinam grass; post-emergence, postemergence, scale 0 to 100, 0 is no effect, 100 is complete control, read-out: Surinam Grass plant response rating) was 20%, the pest or weed control at 125 g/ha (Surinam grass; pre-emergence, 0 = no effect, 100 = complete control, read-out: Surinam Grass plant response rating (0 to 100 scale)) was 10% and the pest or weed control at 500 g/ha (Surinam grass; pre-emergence, visual rating, 0 = no effect, 100 = complete control, read-out: Plant response rating, Surinam Grass) was 90%. It also gave a pest or weed control at 1000 g/ha (barnyardgrass [1]) of 80%, a pest or weed control at 1000 g/ha (ducksalad) of 70% and a plant injury at 125 g/ha (wheat; 125 g ai/ha, visual rating, scale 0 (no effect) to 100 (complete control)) of 0%. The plant injury at 500 g/ha (wheat; 500 g ai/ha, scale 0 to 100, 0 is no effect, 100 is complete control) was 10%, the pest or weed control at 1000 g/ha [2] was 80% and the plant injury at 1000 g/ha (rice) was 70%. For the same compound, the pest or weed control at 125 g/ha (pigweed; post-emergence, postemergence, visual rating, scale 0 (no effect) to 100 (complete control), read-out: Pigweed plant response rating) was 30%, the pest or weed control at 500 g/ha (pigweed; post-emergence, postemergence, scale 0 to 100, 0 is no effect, 100 is complete control, read-out: Pigweed plant response rating) was 50% and the pest or weed control at 125 g/ha (pigweed; pre-emergence, 0 = no effect, 100 = complete control, read-out: Pigweed plant response rating (0 to 100 scale)) was 100%. It also gave a pest or weed control at 500 g/ha (pigweed; pre-emergence, visual rating, 0 = no effect, 100 = complete control, read-out: Plant response rating, Pigweed) of 100%, a pest or weed control at 125 g/ha (morningglory; post-emergence, postemergence, visual rating, scale 0 (no effect) to 100 (complete control), read-out: Morningglory plant response rating) of 20% and a pest or weed control at 500 g/ha (morningglory; post-emergence, postemergence, scale 0 to 100, 0 is no effect, 100 is complete control, read-out: Morningglory plant response rating) of 70%. For the same compound, the pest or weed control at 125 g/ha (morningglory; pre-emergence, 0 = no effect, 100 = complete control, read-out: Morningglory plant response rating (0 to 100 scale)) was 0%, the pest or weed control at 500 g/ha (morningglory; pre-emergence, visual rating, 0 = no effect, 100 = complete control, read-out: Plant response rating, Morningglory) was 0% and the pest or weed control at 125 g/ha (lambsquarters; post-emergence, postemergence, visual rating, scale 0 (no effect) to 100 (complete control), read-out: Lambsquarters plant response rating) was 30%. The pest or weed control at 500 g/ha (lambsquarters; post-emergence, postemergence, scale 0 to 100, 0 is no effect, 100 is complete control, read-out: Lambsquarters plant response rating) was 50%, the pest or weed control at 125 g/ha (lambsquarters; pre-emergence, 0 = no effect, 100 = complete control, read-out: Lambsquarters plant response rating (0 to 100 scale)) was 80% and the pest or weed control at 500 g/ha (lambsquarters; pre-emergence, visual rating, 0 = no effect, 100 = complete control, read-out: Plant response rating, Lambsquarters) was 100%. It also gave a pest or weed control at 125 g/ha (velvetleaf; post-emergence, postemergence, visual rating, scale 0 (no effect) to 100 (complete control), read-out: Velvetleaf plant response rating) of 10%, a pest or weed control at 500 g/ha (velvetleaf; post-emergence, postemergence, scale 0 to 100, 0 is no effect, 100 is complete control, read-out: Velvetleaf plant response rating) of 10% and a pest or weed control at 125 g/ha (velvetleaf; pre-emergence, 0 = no effect, 100 = complete control, read-out: Velvetleaf plant response rating (0 to 100 scale)) of 20%. It also gave a pest or weed control at 500 g/ha (velvetleaf; pre-emergence, visual rating, 0 = no effect, 100 = complete control, read-out: Plant response rating, Velvetleaf) of 100%, a pest or weed control at 125 g/ha (barnyardgrass [3]; [5]) of 0% and a pest or weed control at 500 g/ha (barnyardgrass [3]; [5]) of 0%. For the same compound, the pest or weed control at 125 g/ha (barnyardgrass [3]; pre-emergence, 0 = no effect, 100 = complete control, read-out: Barnyardgrass plant response rating (0 to 100 scale)) was 0% and the pest or weed control at 500 g/ha (barnyardgrass [3]; pre-emergence, visual rating, 0 = no effect, 100 = complete control, read-out: Plant response rating, Barnyardgrass) was 80%.
